≈ marks a conversion by molar mass, not a printed value. Read-outs that look alike come from different tables or passages of the source.
Assays:
[1] = test system: Staphylococcus aureus ATCC 29213; test: In vitro antistaphylococcal activity, microtitration broth MIC; format: cell-based; details: for MIC: Staphylococcus aureus
[2] = test system: vancomycin-resistant E. faecalis (VRE) 342B; test: In vitro antienterococcal activity, microtitration broth MIC; format: cell-based, Enterococcus faecalis; details: 24 h
[3] = test system: methicillin-resistant S. aureus SA 3202; test: In vitro antistaphylococcal activity, microtitration broth MIC; format: cell-based; details: Staphylococcus aureus
[4] = test system: Mycobacterium smegmatis ATCC 700084; test: In vitro antimycobacterial activity, broth dilution MIC; format: cell-based; details: Mycolicibacterium smegmatis
[5] = Lipophilicity determination by RP-HPLC (log k, log D); format: physicochemical; details: for log k: MeOH 72%/H2O 28%; for log D6.5: MeOH 72%/acetate buffered saline pH 6.5; for log D7.4: MeOH 72%/acetate buffered saline pH 7.4
Outline: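 Isocratic RP-HPLC on C18 column, 40 °C, 1.0 mL/min, UV 210 nm, dead time from KI. log k from MeOH/water 72:28; log D at pH 7.4 and 6.5 from MeOH/acetate buffered saline 72:28. k and D = (tR − tD)/tD; triplicate runs.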

[6] = test system: S. aureus, MRSA, E. faecalis, VRE, M. smegmatis, M. marinum; test: In vitro antimicrobial screening, all tested strains; format: cell-based; details: antibacterial/antimycobacterial screening
[7] = test system: vancomycin-resistant E. faecalis (VRE) 368; test: In vitro antienterococcal activity, microtitration broth MIC; format: cell-based, Enterococcus faecalis
[8] = test system: human monocytic leukemia cell line THP-1; test: In vitro cell viability, CCK-8; format: cell-based; details: for IC50: Homo sapiens, THP-1
Method: (§1) The effect of the compounds on viability of eukaryotic cells was evaluated on human leukemia cell line THP-1, human synovial cell line SW982, and isolated primary porcine monocytes-delivered macrophages (MDM). The general cytotoxic effect was studied on THP-1 cells in the serum-free medium (only THP-1 as the only cells used in this study are able to survive in serum-free medium). Most of the compounds had no cytotoxic effect on THP-1 cells. […] This could be caused by the direct interaction of such compounds with serum proteins or by the effect of mitogens, cytokines, and hormones present in the serum. Obviously, the full medium is closer to physiological conditions in living organisms, so it can be assumed that these compounds could be non-toxic there.
(§2) Human monocytic leukemia cell line THP-1 and human synovial cell line SW982 were purchased from the European Collection of Cell Cultures (ECACC, Salisbury, UK) and were used for determination of the influence of test compounds on cell viability, as described previously. These cell lines represent typical suspension and adherent cells, respectively. They were cultivated with test substances in the presence or absence of fetal bovine serum (FBS) in the cultivation medium, and the relative cell viability (the ratio between cells treated with compounds and cells treated only with DMSO) was determined by CCK-8 kit (Sigma) after 24 h.

[9] = test system: human synovial cell line SW982; test: In vitro cell viability, CCK-8; format: cell-based; details: 10% fetal bovine serum
Method: as §1, §2

[10] = test system: vancomycin-resistant E. faecalis (VRE) 725B; test: In vitro antienterococcal activity, microtitration broth MIC; format: cell-based, Enterococcus faecalis; details: 24 h
[11] = test system: methicillin-resistant S. aureus (MRSA) 63718; test: In vitro antistaphylococcal activity, microtitration broth MIC; format: cell-based; details: Staphylococcus aureus
[12] = test system: Mycobacterium marinum CAMP 5644; test: In vitro antimycobacterial activity, broth dilution MIC; format: cell-based; details: CAMP5644, 504 h
[13] = ATCC29213, 24 h, S. aureus ATCC 29213, read-out: log(1/MIC [M]) SA (converted)
[14] = ATCC29213, S. aureus ATCC 29213, 24 h, read-out: MIC SA
[15] = read-out: log(1/MIC [M]) VRE1 (converted)
[16] = 24 h, MRSA SA 3202, read-out: log(1/MIC [M]) MRSA3 (converted)
[17] = MRSA SA 3202, 24 h, read-out: MIC MRSA3
[18] = ATCC700084, 72 h, M. smegmatis ATCC 700084, three days, read-out: MIC MS
[19] = ATCC700084, M. smegmatis ATCC 700084, read-out: log(1/MIC [M]) MS (converted)
[20] = 24 h, VRE 368, read-out: log(1/MIC [M]) VRE2 (converted)
[21] = VRE 368, 24 h, read-out: MIC VRE2
[22] = 10% fetal bovine serum, 24 h, read-out: IC50 THP-1 10% FSB
[23] = 10% fetal bovine serum, read-out: log(1/IC50 [M]) THP-1 10% FSB (converted)
[24] = serum-free medium, 24 h, read-out: IC50 THP-1 SFM
[25] = serum-free medium, read-out: log(1/IC50 [M]) THP-1 SFM (converted)
[26] = 24 h, read-out: IC50 SW982 10% FSB
[27] = read-out: log(1/IC50 [M]) SW982 10% FSB (converted)
[28] = read-out: log(1/MIC [M]) VRE3 (converted)
[29] = 24 h, MRSA 63718, read-out: log(1/MIC [M]) MRSA1 (converted)
[30] = MRSA 63718, 24 h, read-out: MIC MRSA1
[31] = M. marinum CAMP 5644, 21 days, read-out: MIC MM
[32] = M. marinum CAMP 5644, read-out: log(1/MIC [M]) MM (converted)

Row | SMILES | MIC [1, 13] [M] | MIC [1, 14] [M] | MIC ([2]; read-out: MIC VRE1) [M] | MIC [2, 15] [M] | MIC [3, 16] [M] | MIC [3, 17] [M] | MIC [4, 18] [M] | MIC [4, 19] [M] | log k [5] | log D6.5 [5] | log D7.4 [5] | antimicrobial activity (in words) [6] | MIC [7, 20] [M] | MIC [7, 21] [M] | IC50 [8, 22] [M] | IC50 [8, 23] [M] | IC50 [8, 24] [M] | IC50 [8, 25] [M] | IC50 [9, 26] [M] | IC50 [9, 27] [M] | also measured
1 | O=C(/C=C/c1ccc(Cl)c(Cl)c1)Nc1ccc(OC(F)(F)F)cc1 [2k, (2E)-3-(3,4-Dichlorophenyl)-N-[4-(trifluoromethoxy)phenyl]prop-2-enamide] | 2.95e-07 (≈ 0.111 µg/mL) | 1.33e-06 (≈ 0.5 µg/mL) | 2.13e-05 (≈ 8.01 µg/mL) | 2.14e-05 (≈ 8.04 µg/mL) | 1.32e-06 (≈ 0.496 µg/mL) | 1.33e-06 (≈ 0.5 µg/mL) | 1.06e-05 (≈ 3.99 µg/mL) | 2.34e-06 (≈ 0.882 µg/mL) | 1.0513 | 1.0544 | 1.0053 | active | 4.27e-05 (≈ 16 µg/mL) | 4.25e-05 (≈ 16 µg/mL) | > 1e-05 | > 1e-05 | 1e-06 ± 1e-06 | 5.01e-07 | > 1e-05 | > 1e-05 | reduction of cell viability, CCK-8 assay ([8]; 2k 1.0 µM, serum-free medium): 50%; MIC ([10]; read-out: MIC VRE3): 2.13e-05 M (≈ 8.01 µg/mL); MIC [10, 28]: 2.14e-05 M (≈ 8.04 µg/mL); MIC [11, 29]: 1.32e-06 M (≈ 0.496 µg/mL); MIC [11, 30]: 1.33e-06 M (≈ 0.5 µg/mL); MIC [12, 31]: 2.66e-06 M (≈ 1 µg/mL); MIC [12, 32]: 2.95e-07 M (≈ 0.111 µg/mL)
2 | O=C(/C=C/c1ccc(Cl)c(Cl)c1)Nc1cc(C(F)(F)F)cc(C(F)(F)F)c1 [2q, (2E)-N-[3,5-bis(Trifluoromethyl)phenyl]-3-(3,4-dichlorophenyl)prop-2-enamide] | 1.32e-06 (≈ 0.564 µg/mL) | 2.92e-07 (≈ 0.125 µg/mL) | 9.34e-06 (≈ 4 µg/mL) | 9.33e-06 (≈ 4 µg/mL) | 2.95e-07 (≈ 0.126 µg/mL) | 2.92e-07 (≈ 0.125 µg/mL) | 2.34e-06 (≈ 1 µg/mL) | 1.07e-05 (≈ 4.59 µg/mL) | 1.4731 | 1.4967 | 1.4717 | active | 1.86e-05 (≈ 7.97 µg/mL) | 1.87e-05 (≈ 8 µg/mL) | > 1e-05 | > 1e-05 | 5e-07 ± 1e-06 | 1e-06 | > 1e-05 | > 1e-05 | activity against S. aureus and MRSA isolates (in words) ([1]; S. aureus and MRSA isolates): submicromolar; MIC ([10]; read-out: MIC VRE3): 4.67e-06 M (≈ 2 µg/mL); MIC [10, 28]: 4.68e-06 M (≈ 2 µg/mL); MIC [11, 29]: 1.35e-07 M (≈ 0.0578 µg/mL); MIC [11, 30]: 1.36e-07 M (≈ 0.0582 µg/mL); MIC [12, 31]: 2.92e-07 M (≈ 0.125 µg/mL); MIC [12, 32]: 2.63e-06 M (≈ 1.13 µg/mL)

Source: PMC8951032, “Study of Biological Activities and ADMET-Related Properties of Novel Chlorinated N-arylcinnamamides” (International Journal of Molecular Sciences, 2022)
